# Reference: US20100119612A1, “NANOPARTICLES COMPRISING NON-CRYSTALLINE DRUG” (Bend Research, Inc, priority 2007, published 2010)
# Assays:
# Log P of the drug = assay type: physicochemical; conditions: octanol/water; method not stated
# Source text: By hydrophobic is meant that the Log P of the drug is at least 4. The LogP of the drug may be at least 5, at least 6, or even at least 7. Log P, defined as the base 10 logarithm of the ratio of (1) the drug concentration in an octanol phase to (2) the drug concentration (in its unionized form if the drug may be ionized) in a water phase when the two phases are in equilibrium with each other, is a widely accepted measure of hydrophobicity. Log P may be measured experimentally or calculated using methods known in the art. When using a calculated value for Log P, the highest value calculated using any generally accepted method for calculating Log P is used. […] Preferably the Log P value is calculated by using the average value estimated using Crippen's, Viswanadhan's, and Broto's fragmentation methods.
# [1] = Solubility of crystalline drug in 2 wt % NaTC/POPC; assay type: physicochemical; conditions: 2 wt % NaTC/POPC solution, fassgf or other biorelevant, thermodynamic from solid
# [2] = Measurement of free drug by 19F NMR; assay type: physicochemical; conditions: after 120 minutes; deuterated PBS with 2.0 wt % NaTC/POPC; 37° C.; 1000 μg/mL Drug 1 if all dissolved
# Experimental: Alternatively, free drug for a nanoparticle suspension can be measured with nuclear magnetic resonance (NMR). In this method, the nanoparticles are equilibrated in an NMR tube with a buffered deuterium oxide solution. A specified amount of a reference standard is also added to the sample, such that the final concentration of the standard in the tube is known. An NMR spectrum is then acquired, and the integration of the drug peak(s) is compared to that of the reference standard to determine the actual dissolved drug concentration. Depending on the drug, either proton NMR (in which case a suitable reference standard is deuterated trimethylsilyl propionic acid) or fluorine NMR (in which case a suitable reference standard is trifiuoroacetic acid) may be employed. Because NMR is sensitive only to materials in the solution state or in micelles, only the drug that is not sequestered in nanopartides is measured by this method.
# The solution was mixed, and an ^19F internal standard solution of trifluoroacetic acid (TFA) was added. […] This solution was vortexed 1 minute, and then carefully transferred to an 8 mm glass NMR tube.
# Fluorine spectra of the sample was recorded at 282.327 MHz on a Varian Gemini 2000, 300 MHz NMR equipped with a Nalorac 8 mm indirect detection probe. […] Drug resonances were integrated relative to the internal standard peak and the drug concentration determined. […]
# [3] = In vivo evaluation in dogs (Example 2, oral suspension, plasma LC/MS/MS); parameters: species or system male beagle dogs; conditions: fasted dogs, oral gavage, approx. 50 mL of 1.2 mgA/mL suspension
# Experimental: The nanoparticles of Example 2 were evaluated in vivo in dogs. Samples were dosed orally as a suspension to 6 male beagle dogs.
# Animals were fasted overnight (at least 10 hours predose) through 8 hours postdose. Approximately 50 mL of suspension (1.2 mgA/mL) was administered to each dog via oral gavage, followed by approximately 5 mL water. Whole-blood samples (7-mL sodium heparin Vacutainer tubes) were taken from the jugular vein before dosing and at 0.5, 1, 2, 3, 4, 6, 8, 12, 24, and 28 hours after dosing. […] was harvested into tubes containing K2EDTA anticoagulant. Blood was maintained on wet ice prior to centrifugation to obtain plasma. Centrifugation began within 1 hour of collection, and samples were centrifuged at 2500 rpm for 15 minutes. Plasma was maintained on dry ice prior to storage at approximately −70° C. Plasma was analyzed using liquid chromatography with tandem mass spectrometry (LC/MS/MS). Crystalline Drug 1 was tested for comparison.
logP (Log P of the drug),solubility [1] [µg/mL],Free Drug [2] [µg/mL],AUC0-∞ [3],Cmax [3],Tmax [3],SMILES
~7.55,~8,–,–,–,–,"CC[C@@H]1C[C@H](N(Cc2cc(C(F)(F)F)cc(C(F)(F)F)c2)C(C)=O)c2cc(C(F)(F)F)ccc2N1C(=O)OC(C)C [Drug 2, [2R,4S] 4-[acetyl-(3,5-bis-trifluoromethyl-benzyl)-amino]-2-ethyl-6-trifluoromethyl-3,4-dihydro-2H-quinoline-1-carboxylic acid isopropyl ester]"
~7.55,–,15,<LOQ,<LOQ*,<LOQ,"CCOC(=O)N1c2ccc(C(F)(F)F)cc2[C@@H](N(Cc2cc(C(F)(F)F)cc(C(F)(F)F)c2)C(=O)OC)C[C@H]1CC [Drug 1, [2R,4S] 4-[(3,5-bis-trifluoromethyl-benzyl)-methoxycarbonyl-amino]-2-ethyl-6-trifluoromethyl-3,4-dihydro-2H-quinoline-1-carboxylic acid ethyl ester]"
